Measured values reported in patent US20210340563A1, “DONOR T-CELLS WITH KILL SWITCH” (CSL BEHRING LLC, priority 2018, published 2021).

Key:
[1] = system: K562 cells; test: negative selection with MTX on K562 cells; type: cell-based, human; conditions: 0.3 μM of MTX, day 0 to day 14
Experimental: Transduced or transfected K562 cells (such as those from Example 1) were cultured with or without MTX from day 0 to day 14. The medium was refreshed every 3 to 4 days. GFP was analyzed on a flow machine and the InDel % was analyzed by T7E1 assay. […] On the other hand, the population of cells was steady without MTX. FIG. 14B illustrates that the transfected K562 cells were eliminated under treatment with 0.3 μM of MTX at a faster pace as compared with the HPRT-knockdown population.
K562 cells were transduced with either (i) a TL20cw-GFP virus soup at dilution factor of 16, (ii) a TL20cw-Ubc/GFP-7SK/sh734 virus soup at a dilution factor of 16 (one sequentially encoding GFP and a shRNA designed to knockdown HPRT); or (iii) a TL20cw-7SK/sh734-UBC/GFP virus soup at a dilution factor of 16 (one sequentially encoding a shRNA designed to knockdown HPRT and GFP) (see FIG. 16). K562 cells were also transduced by a TL20cw-7SK/sh734-UBC/GFP virus soup at a dilution factor of 1024 (one encoding a nucleic acid encoding a shRNA designed to knockdown HPRT) (also shown in FIG. 16). Three days following transduction, all cells were cultured with medium containing 0.3 μM of MTX 3. […] The relative sh734 expression per vector copy number (VCN) for sh734-GFP-transduced cells and GFP-sh734-transduced cells were measured.

[2] = system: CEM cells; test: negative selection with MTX or MPA on CEM cells; type: cell-based; conditions: 1 μM of MPA or 0.3 μM of MTX or 10 μM of MPA; for GFP-population of transduced cells under MPA or MTX: CEM experiment
[3] = system: Jurkat cells; test: 6-TG resistance of HPRT knockout Jurkat cells, luminescence (ATP detection) cell viability; type: cell-based
Experimental: (§1) Jurkat cells were electroporated with a ribonucleoprotein (RNP) complex containing guide RNA (gRNA; GS-4; designated IDT-4) together with the Cas9 and tracrRNA. Cells which were confirmed to be transfected with the gRNA via tracr RNA were purified using fluorescence activated cells sorting (FACS) and subsequently cultured for 72 hours. Increasing concentrations of 6-thioguanine (6-TG) were then administered to the transduced cultured cells to assess resistance. Wild type (unmodified) Jurkat cells were used as a control.
Luminescence (ATP detection) was used to assess cell viability.

[4] = system: K562 cells; test: ex vivo 6TG selection of HPRT knockdown/knockout K562 cells; type: cell-based, human
Experimental: These initial preliminary experiments were performed in K562 cells (human immortalized myelogenous leukemia line) (rsh7-GFP=short hairpin to HPRT/GFP lentiviral vector to knockdown HPRT; nanoRNP-HPRT=CRISPR/Cas9 ribonucleoprotein nanocapsules to knockout HPRT).
K562 cells were transduced with an expression vector including a nucleic acid sequence designed to knockdown HPRT and a nucleic acid sequence encoding the green fluorescent protein (GFP) (MOI=1/2/5); or were transfected with a nanocapsule including CRISPR/Cas9 and a sgRNA to knockout HPRT (100 ng/5×10^4 cells) at day zero (0). 6TG was added into the medium from day 3 through day 14. The medium was refreshed every 3 to 4 days. GFP was analyzed on a flow machine and the InDel % as analyzed with a T7E1 assay.

[5] = system: CEM cells; test: 6TG selection of HPRT knockdown/knockout CEM cells; type: cell-based
Experimental: CEM cells were transduced with an expression vector including a nucleic acid sequence designed to knockdown HPRT and a nucleic acid sequence encoding the green fluorescent protein or transfected with a nanocapsule including CRISPR/Cas9 and a sgRNA to HPRT at day 0. 6TG was added into the medium from day 3 to day 17. The medium was refreshed every 3 to 4 days. GFP as analyzed on a flow machine and the InDel % is analyzed by a T7E1 assay. FIG. 13A illustrates that the GFP+ population of transduced K562 cells increased from day 3 to day 17 under treatment of 6TG while GFP+ population was almost steady without. […] It should be noted that 6TG selection process occurred faster on HPRT knockout cells rather than HPRT knockdown cells (MOI=1) at the same concentration of 6TG from day 3 to day 17.

[6] = system: Jurkat cells; test: methotrexate dose response of HPRT knockout Jurkat cells; type: cell-based; conditions: MTX 0.00625 and 0.0125 μM, cultured for 5 days
Experimental: Jurkat cells (unmodified; WT) were cultured with increasing concentrations of methotrexate (MTX) to determine the MTX dosage window required to kill WT cells (see FIG. 28). A dose range of between 0.00625 and 0.025 μM MTX was selected for subsequent assessment of HPRT Knockout (IDT-4 modified) Jurkat cells.
Dose response of HPRT Knockout (IDT-4 modified) Jurkat cells to MTX was compared to unmodified Jurkat cells (WT) to determine sensitivity to MTX (see FIG. 29).

[7] = system: HPRT protein; test: Western blot for HPRT protein in Jurkat cells; type: cell-based; conditions: modified Jurkat cells; actin loading control
Experimental: as §1
Unmodified (WT) and IDT-4 modified Jurkat cells were also analyzed for HPRT protein using Western blot (see FIG. 25). […] Actin protein detection (bottom panel) was used as a protein loading control.

[8] = 900 nM of 6TG compared with 300/600 nM of 6TG

## CN(Cc1cnc2nc(N)nc(N)c2n1)c1ccc(C(=O)N[C@@H](CCC(=O)O)C(=O)O)cc1 [MTX, methotrexate]
[1]
  GFP-population of transduced K562 cells under MTX: decreased
  transfected (HPRT knockout) K562 cells under MTX: eliminated
[2]
  HPRT knockout population of CEM cells under MPA or MTX: eliminated at a faster pace
  GFP-population of transduced cells under MPA or MTX: decreased

## Nc1nc2nc[nH]c2c(=S)[nH]1 [Vector 6TG, 6-thioguanine]
[3]; increasing concentrations of 6-TG
  cell viability (luminescence) of unmodified (wild type) Jurkat cells: decrease in cell viability
[4]; [8]
  speed of selection of HPRT knockout K562 cells: faster selection
[4]; CRISPR/Cas9 nanocapsule transfected, day 3 to 14
  HPRT knockout population of K562 cells under treatment with 6TG (InDel %, T7E1 assay): increased
[4]; HPRT knockdown vector with GFP, day 3 to day 14
  GFP+ population of transduced K562 cells under treatment of 6TG: increased
[5]; [8]
  speed of selection of HPRT knockout CEM cells: faster selection
[5]; CEM experiment, day 3 to day 17
  GFP+ population of transduced cells under treatment of 6TG: increased
[5]; day 3 to 17
  HPRT knockout population of CEM cells under treatment of 6TG: increased

## COc1c(C)c2c(c(O)c1C/C=C(\C)CCC(=O)O)C(=O)OC2 [MPA, mycophenolic acid]
[2]
  HPRT knockout population of CEM cells under MPA or MTX: eliminated at a faster pace
  GFP-population of transduced cells under MPA or MTX: decreased

## IDT-4: lead HPRT guide RNA, SEQ ID NO: 36, GGTTATGACCTTGATTTATT; used as Cas9 RNP (used with tracrRNA as Cas9 RNP, further chemistry not given here)
[3]; 6-TG tested up to 10 uM
  cell viability (luminescence) of gRNA-modified Jurkat cells with increasing 6-TG: resistance to increasing doses of 6-TG
[6]
  sensitivity to MTX compared to wild type Jurkat cells: increased sensitivity to MTX
[7]
  HPRT protein level by Western blot: undetectable levels of HPRT
